# Laboratory results published in ChEMBL document CHEMBL4190187, “Discovery of pyrazolopyrimidine derivatives as novel inhibitors of ataxia telangiectasia and rad3 related protein (ATR)” (Bioorg Med Chem Lett, 2017).
# Columns and labels:
# [1] = Metabolic stability in rat liver microsomes assessed as compound remaining at 1 uM in presence of NADPH as cofactor measured after 30 mins by LC-MS/MS method; assay type: ADME, microsome; conditions: read-out: Stability
# [2] = Apparent volume of distribution in mouse at 2 mg/kg, iv or 10 mg/kg, po; assay type: ADME, organism-based; conditions: in vivo, read-out: Vz
# Mus musculus = test: AUC in mouse at 10 mg/kg, po; assay type: ADME, organism-based; conditions: in vivo
# [3] = molecular target: Tyrosine-protein kinase ABL2 (Homo sapiens) (UniProt P42684); test: Inhibition of recombinant human ARG (38 to end residues) at 1 uM using EAIYAAPFAKKK as substrate after 40 mins in presence of [gamma-33P]ATP by scintillation counting method
# [4] = molecular target: Cytoplasmic tyrosine-protein kinase BMX (Homo sapiens) (UniProt P51813); test: Inhibition of recombinant full-length human BMX at 1 uM using poly(Glu,Tyr) 4:1 as substrate after 40 mins in presence of [gamma-33P]ATP by scintillation counting method
# [5] = molecular target: Serine/threonine-protein kinase Chk1 (Homo sapiens) (UniProt O14757); test: Inhibition of recombinant full-length human CHK1 at 1 uM using KKKVSRSGLYRSPSMPENLNRPR as substrate after 40 mins in presence of [gamma-33P]ATP by scintillation counting method
# [6] = system: Serine/threonine-protein kinase Chk2 (Homo sapiens), O96017 [R145W]; test: Inhibition of recombinant human CHK2 R145W mutant (5 to end residues) at 1 uM using KKKVSRSGLYRSPSMPENLNRPR as substrate after 40 mins in presence of [gamma-33P]ATP by scintillation counting method
# [7] = molecular target: Casein kinase II subunit alpha (Homo sapiens) (UniProt P68400); test: Inhibition of recombinant full-length human CK2 at 1 uM using RRRDDDSDDD as substrate after 40 mins in presence of [gamma-33P]ATP by scintillation counting method
# [8] = molecular target: Ephrin type-B receptor 1 (Homo sapiens) (UniProt P54762); test: Inhibition of recombinant human EPHB1 (564 to end residues) at 1 uM using KVEKIGEGTYGVVYK as substrate after 40 mins in presence of [gamma-33P]ATP by scintillation counting method
# [9] = molecular target: Tyrosine-protein kinase Fyn (Homo sapiens) (UniProt P06241); test: Inhibition of recombinant full-length human Fyn at 1 uM using KVEKIGEGTYGVVYK as substrate after 40 mins in presence of [gamma-33P]ATP by scintillation counting method
# [10] = molecular target: Homeodomain-interacting protein kinase 4 (Homo sapiens) (UniProt Q8NE63); test: Inhibition of recombinant full-length human HIPK4 at 1 uM using RRRFRPASPLRGPPK as substrate after 40 mins in presence of [gamma-33P]ATP by scintillation counting method
# [11] = molecular target: Tyrosine-protein kinase ITK/TSK (Homo sapiens) (UniProt Q08881); test: Inhibition of recombinant human ITK (352 to 617 residues) at 1 uM using myelin basic protein as substrate after 40 mins in presence of [gamma-33P]ATP by scintillation counting method
# [12] = molecular target: Leucine-rich repeat serine/threonine-protein kinase 2 (Homo sapiens) (UniProt Q5S007); test: Inhibition of recombinant human LRRK2 (970 to end residues) at 1 uM using RLGRDKYKTLRQIRQ as substrate after 40 mins in presence of [gamma-33P]ATP by scintillation counting method
# [13] = molecular target: Leukocyte tyrosine kinase receptor (Homo sapiens) (UniProt P29376); test: Inhibition of recombinant human LTK (450 to end residues) at 1 uM using GEEPLYWSFPAKKK as substrate after 40 mins in presence of [gamma-33P]ATP by scintillation counting method
# [14] = molecular target: Mitogen-activated protein kinase 1 (Mus musculus) (UniProt P63085); test: Inhibition of recombinant full-length mouse MAPK2 at 1 uM using myelin basic protein as substrate after 40 mins in presence of [gamma-33P]ATP by scintillation counting method
# [15] = molecular target: Serine/threonine-protein kinase MARK1 (Homo sapiens) (UniProt Q9P0L2); test: Inhibition of recombinant human MARK1 (2 to end residues) at 1 uM using KKKVSRSGLYRSPSMPENLNRPR as substrate after 40 mins in presence of [gamma-33P]ATP by scintillation counting method
# [16] = molecular target: MAP/microtubule affinity-regulating kinase 3 (Homo sapiens) (UniProt P27448); test: Inhibition of recombinant full-length human MARK3 at 1 uM using KKKVSRSGLYRSPSMPENLNRPR as substrate after 40 mins in presence of [gamma-33P]ATP by scintillation counting method
# [17] = molecular target: Dual specificity mitogen-activated protein kinase kinase 4 (Mus musculus) (UniProt P47809); test: Inhibition of recombinant mouse MKK4 (34 to end residues) at 1 uM using inactive JNK1a1 as substrate after 40 mins in presence of [gamma-33P]ATP by scintillation counting method
# [18] = molecular target: Serine/threonine-protein kinase 26 (Homo sapiens) (UniProt Q9P289); test: Inhibition of recombinant human MST4 (4 to 304 residues) at 1 uM using RLGRDKYKTLRQIRQ as substrate after 40 mins in presence of [gamma-33P]ATP by scintillation counting method
# [19] = molecular target: Serine/threonine-protein kinase Nek3 (Homo sapiens) (UniProt P51956); test: Inhibition of recombinant full-length human NEK3 at 1 uM using myelin basic protein as substrate after 40 mins in presence of [gamma-33P]ATP by scintillation counting method
# [20] = molecular target: Phosphatidylinositol 4,5-bisphosphate 3-kinase catalytic subunit gamma isoform (Homo sapiens) (UniProt P48736); test: Inhibition of recombinant full-length human p120g at 1 uM using phosphatidylinositol-4,5-bisphosphate as substrate after 40 mins in presence of [gamma-33P]ATP by scintillation counting method
# [21] = molecular target: Serine/threonine-protein kinase pim-2 (Homo sapiens) (UniProt Q9P1W9); test: Inhibition of recombinant human PIM2 (2 to end residues) at 1 uM using RSRHSSYPAGT as substrate after 40 mins in presence of [gamma-33P]ATP by scintillation counting method
# [22] = molecular target: cAMP-dependent protein kinase catalytic subunit PRKX (Homo sapiens) (UniProt P51817); test: Inhibition of recombinant full-length human PRKX at 1 uM using RRRLSFAEPG as substrate after 40 mins in presence of [gamma-33P]ATP by scintillation counting method
# [23] = molecular target: Serine/threonine-protein kinase PRP4 homolog (Homo sapiens) (UniProt Q13523); test: Inhibition of recombinant human PRP4 (663 to end residues) at 1 uM using casein as substrate after 120 mins in presence of [gamma-33P]ATP by scintillation counting method
# [24] = system: Proto-oncogene tyrosine-protein kinase receptor Ret (Homo sapiens), P07949 [V804L]; test: Inhibition of recombinant human RET V804L mutant (658 to end residues) at 1 uM using KKKVSRSGLYRSPSMPENLNRPR as substrate after 40 mins in presence of [gamma-33P]ATP by scintillation counting method
# Leukocyte tyrosine kinase receptor (Homo sapiens), sequence (P29376 whole entry): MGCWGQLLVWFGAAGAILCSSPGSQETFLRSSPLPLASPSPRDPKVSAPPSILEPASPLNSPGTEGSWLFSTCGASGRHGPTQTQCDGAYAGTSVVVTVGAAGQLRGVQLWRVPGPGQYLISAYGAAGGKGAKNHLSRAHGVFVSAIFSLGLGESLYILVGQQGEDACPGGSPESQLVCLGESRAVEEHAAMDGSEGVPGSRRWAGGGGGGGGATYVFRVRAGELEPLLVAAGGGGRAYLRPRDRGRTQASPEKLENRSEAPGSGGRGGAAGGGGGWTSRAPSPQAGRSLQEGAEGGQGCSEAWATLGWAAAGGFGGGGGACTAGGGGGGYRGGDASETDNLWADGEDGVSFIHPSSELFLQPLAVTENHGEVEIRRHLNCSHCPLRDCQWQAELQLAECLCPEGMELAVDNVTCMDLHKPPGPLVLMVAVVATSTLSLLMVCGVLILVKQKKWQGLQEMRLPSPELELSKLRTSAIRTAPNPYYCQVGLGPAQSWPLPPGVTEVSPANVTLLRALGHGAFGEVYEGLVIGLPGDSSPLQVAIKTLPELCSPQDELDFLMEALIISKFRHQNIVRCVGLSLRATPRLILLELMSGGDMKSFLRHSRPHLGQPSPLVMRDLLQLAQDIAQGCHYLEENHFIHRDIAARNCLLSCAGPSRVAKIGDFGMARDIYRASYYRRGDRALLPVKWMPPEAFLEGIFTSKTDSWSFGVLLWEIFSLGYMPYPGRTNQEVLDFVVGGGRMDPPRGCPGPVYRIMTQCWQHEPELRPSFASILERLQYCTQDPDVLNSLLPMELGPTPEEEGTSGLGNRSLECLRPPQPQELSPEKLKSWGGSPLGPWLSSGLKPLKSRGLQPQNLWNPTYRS
# Tyrosine-protein kinase ABL2 (Homo sapiens), sequence (P42684 whole entry): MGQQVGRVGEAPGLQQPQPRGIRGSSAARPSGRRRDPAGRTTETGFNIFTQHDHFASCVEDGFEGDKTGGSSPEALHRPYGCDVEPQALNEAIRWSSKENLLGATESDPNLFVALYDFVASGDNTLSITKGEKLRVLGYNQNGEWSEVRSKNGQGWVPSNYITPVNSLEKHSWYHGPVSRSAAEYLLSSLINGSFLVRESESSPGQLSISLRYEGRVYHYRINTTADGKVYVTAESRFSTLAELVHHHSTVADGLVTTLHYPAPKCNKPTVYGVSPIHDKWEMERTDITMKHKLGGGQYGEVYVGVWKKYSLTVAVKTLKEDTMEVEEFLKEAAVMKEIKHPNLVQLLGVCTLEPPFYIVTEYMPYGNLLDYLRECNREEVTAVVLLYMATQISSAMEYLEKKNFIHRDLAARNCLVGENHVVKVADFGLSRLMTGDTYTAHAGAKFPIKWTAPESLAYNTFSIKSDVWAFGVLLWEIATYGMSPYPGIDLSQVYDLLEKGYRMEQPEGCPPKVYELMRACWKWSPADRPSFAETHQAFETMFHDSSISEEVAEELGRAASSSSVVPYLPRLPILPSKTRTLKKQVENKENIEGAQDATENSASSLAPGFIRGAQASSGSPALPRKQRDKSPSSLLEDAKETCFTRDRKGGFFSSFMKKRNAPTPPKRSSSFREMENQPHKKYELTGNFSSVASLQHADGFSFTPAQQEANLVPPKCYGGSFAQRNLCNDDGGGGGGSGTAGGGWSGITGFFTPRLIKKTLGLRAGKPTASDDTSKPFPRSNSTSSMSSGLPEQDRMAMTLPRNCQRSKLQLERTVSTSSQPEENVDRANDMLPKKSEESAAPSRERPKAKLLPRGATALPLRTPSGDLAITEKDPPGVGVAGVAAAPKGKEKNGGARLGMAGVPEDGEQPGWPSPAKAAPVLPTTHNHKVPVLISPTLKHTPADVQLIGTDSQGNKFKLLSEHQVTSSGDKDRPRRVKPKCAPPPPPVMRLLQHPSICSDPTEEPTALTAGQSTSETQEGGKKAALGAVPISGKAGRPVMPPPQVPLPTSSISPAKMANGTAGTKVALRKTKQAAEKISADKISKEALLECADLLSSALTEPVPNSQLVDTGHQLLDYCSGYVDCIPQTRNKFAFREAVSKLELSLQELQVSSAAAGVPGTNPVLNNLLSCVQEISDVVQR
# Leucine-rich repeat serine/threonine-protein kinase 2 (Homo sapiens), sequence (Q5S007 whole entry): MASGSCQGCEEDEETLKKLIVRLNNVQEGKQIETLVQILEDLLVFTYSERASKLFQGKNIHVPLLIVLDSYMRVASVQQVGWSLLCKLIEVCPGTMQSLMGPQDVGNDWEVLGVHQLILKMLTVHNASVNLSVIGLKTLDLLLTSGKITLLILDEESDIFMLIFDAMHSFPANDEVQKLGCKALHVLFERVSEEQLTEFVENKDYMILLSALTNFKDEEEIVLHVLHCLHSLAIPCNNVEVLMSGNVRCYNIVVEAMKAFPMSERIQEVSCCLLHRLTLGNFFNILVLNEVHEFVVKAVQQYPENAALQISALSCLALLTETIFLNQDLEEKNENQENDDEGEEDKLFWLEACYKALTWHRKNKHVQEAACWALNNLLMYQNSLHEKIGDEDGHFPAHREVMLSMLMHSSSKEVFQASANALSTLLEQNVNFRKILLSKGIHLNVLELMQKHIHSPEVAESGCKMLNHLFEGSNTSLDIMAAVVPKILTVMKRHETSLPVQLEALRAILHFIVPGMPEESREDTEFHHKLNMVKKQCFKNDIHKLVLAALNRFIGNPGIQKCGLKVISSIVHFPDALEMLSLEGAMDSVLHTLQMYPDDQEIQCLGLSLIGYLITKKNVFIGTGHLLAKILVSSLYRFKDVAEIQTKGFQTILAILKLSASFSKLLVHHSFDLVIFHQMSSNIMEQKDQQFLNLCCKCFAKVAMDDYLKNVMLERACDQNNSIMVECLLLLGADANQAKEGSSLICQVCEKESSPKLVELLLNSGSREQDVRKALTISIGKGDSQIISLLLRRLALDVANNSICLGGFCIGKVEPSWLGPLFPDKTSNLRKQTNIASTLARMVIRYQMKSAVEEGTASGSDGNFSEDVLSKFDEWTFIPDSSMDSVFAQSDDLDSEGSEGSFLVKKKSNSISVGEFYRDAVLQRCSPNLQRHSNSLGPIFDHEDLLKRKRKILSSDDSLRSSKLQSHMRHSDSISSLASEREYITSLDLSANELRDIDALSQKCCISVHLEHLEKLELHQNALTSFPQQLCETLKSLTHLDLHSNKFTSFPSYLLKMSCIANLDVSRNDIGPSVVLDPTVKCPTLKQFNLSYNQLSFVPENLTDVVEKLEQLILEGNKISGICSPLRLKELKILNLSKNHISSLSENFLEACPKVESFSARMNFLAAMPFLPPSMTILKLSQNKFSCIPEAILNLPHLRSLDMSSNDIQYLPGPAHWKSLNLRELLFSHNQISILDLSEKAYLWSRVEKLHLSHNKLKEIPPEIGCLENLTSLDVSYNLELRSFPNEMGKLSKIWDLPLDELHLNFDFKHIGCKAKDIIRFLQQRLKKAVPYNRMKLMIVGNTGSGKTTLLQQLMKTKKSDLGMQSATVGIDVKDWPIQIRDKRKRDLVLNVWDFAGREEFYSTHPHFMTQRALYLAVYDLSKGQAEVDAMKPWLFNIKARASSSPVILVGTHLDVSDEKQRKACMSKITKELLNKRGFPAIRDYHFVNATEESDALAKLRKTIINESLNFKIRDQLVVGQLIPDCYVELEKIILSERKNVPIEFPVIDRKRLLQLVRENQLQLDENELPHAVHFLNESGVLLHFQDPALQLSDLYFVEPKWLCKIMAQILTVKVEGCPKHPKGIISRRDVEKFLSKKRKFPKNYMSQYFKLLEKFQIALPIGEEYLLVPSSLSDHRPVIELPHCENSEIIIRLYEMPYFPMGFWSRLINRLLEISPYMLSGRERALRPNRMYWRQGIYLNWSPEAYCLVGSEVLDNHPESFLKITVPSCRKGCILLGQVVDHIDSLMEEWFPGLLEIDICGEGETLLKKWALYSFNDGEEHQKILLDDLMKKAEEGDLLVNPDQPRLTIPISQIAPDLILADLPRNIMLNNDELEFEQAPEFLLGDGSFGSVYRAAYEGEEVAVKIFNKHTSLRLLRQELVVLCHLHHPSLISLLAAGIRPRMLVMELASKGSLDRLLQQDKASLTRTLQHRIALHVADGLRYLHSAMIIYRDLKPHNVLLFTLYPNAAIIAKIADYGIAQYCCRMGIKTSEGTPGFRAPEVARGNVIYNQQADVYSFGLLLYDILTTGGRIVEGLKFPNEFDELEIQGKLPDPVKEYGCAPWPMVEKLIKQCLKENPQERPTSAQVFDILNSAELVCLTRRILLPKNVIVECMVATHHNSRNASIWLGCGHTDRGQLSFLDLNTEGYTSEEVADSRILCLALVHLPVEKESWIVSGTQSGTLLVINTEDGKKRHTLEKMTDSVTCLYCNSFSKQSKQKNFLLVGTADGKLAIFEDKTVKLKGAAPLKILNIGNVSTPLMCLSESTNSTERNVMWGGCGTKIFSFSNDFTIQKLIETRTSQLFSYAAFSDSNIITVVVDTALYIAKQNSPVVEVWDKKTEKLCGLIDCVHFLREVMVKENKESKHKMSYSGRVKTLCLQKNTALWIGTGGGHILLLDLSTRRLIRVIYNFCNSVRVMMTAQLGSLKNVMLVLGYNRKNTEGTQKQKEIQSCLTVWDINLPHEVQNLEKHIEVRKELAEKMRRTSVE
# Casein kinase II subunit alpha (Homo sapiens), sequence (P68400 whole entry, looked up): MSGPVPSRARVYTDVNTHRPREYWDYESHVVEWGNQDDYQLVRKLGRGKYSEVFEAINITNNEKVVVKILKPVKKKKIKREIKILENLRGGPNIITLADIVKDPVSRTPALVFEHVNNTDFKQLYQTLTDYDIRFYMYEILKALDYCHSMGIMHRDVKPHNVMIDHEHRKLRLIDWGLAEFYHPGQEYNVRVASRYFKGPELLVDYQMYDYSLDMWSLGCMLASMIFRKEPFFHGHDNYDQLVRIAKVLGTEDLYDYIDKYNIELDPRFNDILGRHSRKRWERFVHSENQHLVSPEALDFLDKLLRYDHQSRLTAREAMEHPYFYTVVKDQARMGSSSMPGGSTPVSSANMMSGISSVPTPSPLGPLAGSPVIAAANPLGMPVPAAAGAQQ
smiles,measurement,setting,value
CS(=O)(=O)c1ccc(-n2nc(-c3cnc4[nH]ccc4c3)c3c(N)ncnc32)cc1,"remaining at 0.5 h, 1 µM",[1],63%
same,Vd,[2],2.15 L/kg
same,AUC,Mus musculus,0.212 µM·h
same,inhibition,[3],61%
same,inhibition,[4],47%
same,inhibition,[5],2%
same,inhibition,[6],4%
same,inhibition,[7],2%
same,inhibition,[8],22%
same,inhibition,[9],90%
same,inhibition,[10],-4%
same,inhibition,[11],-9%
same,inhibition,[12],22%
same,inhibition,[13],-3%
same,inhibition,[14],1%
same,inhibition,[15],-7%
same,inhibition,[16],4%
same,inhibition,[17],10%
same,inhibition,[18],-3%
same,inhibition,[19],-7%
same,inhibition,[20],10%
same,inhibition,[21],-7%
same,inhibition,[22],-4%
same,inhibition,[23],4%
same,inhibition,[24],20%
